{"source": "paper PMC3230571", "about": "(International Journal of Nanomedicine, 2011)", "tested_on": "rats with streptozotocin-induced diabetes", "test": "Hypoglycemic effect and relative bioavailability after oral administration", "type": "in vivo, rat", "conditions": "diabetic rats fasted 12 hours, oral 20 IU/kg, n = 6", "data": [{"substance": "insulin", "values": [{"measurement": "Hypoglycemic effect (plasma glucose relative to the initial value)", "value": "did not appreciably lower the blood glucose levels"}]}]}
